Target: T1, CK2α (Homo sapiens, UniProt P68400)
T1 construct: gene CSNK2A1; human recombinant CK2α; rhCK2αΔC(1-335)
T1 sequence (P68400 1-335): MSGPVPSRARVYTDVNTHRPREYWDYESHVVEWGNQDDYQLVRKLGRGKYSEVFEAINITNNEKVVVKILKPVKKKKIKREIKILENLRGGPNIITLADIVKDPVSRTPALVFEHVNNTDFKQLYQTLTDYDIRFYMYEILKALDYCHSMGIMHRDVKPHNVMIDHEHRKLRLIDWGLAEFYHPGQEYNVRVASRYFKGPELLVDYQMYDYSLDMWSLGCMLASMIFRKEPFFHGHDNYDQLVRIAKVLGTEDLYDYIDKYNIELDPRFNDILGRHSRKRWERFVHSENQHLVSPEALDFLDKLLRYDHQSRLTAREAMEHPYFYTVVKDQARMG
Experiment: radiometric kinase assay dose-response, Lineweaver-Burk kinetics, mutant panel
Assay type: biochemical

- IC50: ~400 nM
Compound: O=[N+]([O-])c1ccc2c(N=Nc3ccc4ccccc4c3O)c(O)cc(S(=O)(=O)O)c2c1 [compound 4, Eriochrome Black T]
